Several values for one entry are separate records, joined by “and”; a condition that tells them apart may be missing. Equal entries are not always repeated. Toxic doses and inconclusive results are not listed.
Tested on: CD2F1 mice, L1210 leukemia ip, survival T/C
Assay: NCI In Vivo Anticancer Drug Screen. Data for tumor model L1210 Leukemia (intraperitoneal) in CD2F1 (CDF1) mice
Settings: endpoint: mean survival time, higher = longer survival
Outline: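 In this screen, transplantable tumors were grown in mice given either the compound or its vehicle. Results were expressed as the treated measurement relative to the control measurement.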

[1] = dose: 100.0 mg/kg/injection, schedule: Q04DX002 (ip), vehicle: saline with Tween-80
[2] = dose: 200.0 mg/kg/injection, schedule: Q04DX002 (ip), vehicle: saline with Tween-80
[3] = dose: 400.0 mg/kg/injection, schedule: Q04DX002 (ip), vehicle: saline with Tween-80
[4] = dose: 6.25 mg/kg/injection, schedule: Q01DX009 (ip), vehicle: saline with Tween-80
[5] = dose: 12.5 mg/kg/injection, schedule: Q04DX003 (ip), vehicle: saline with Tween-80
[6] = dose: 25.0 mg/kg/injection, schedule: Q04DX003 (ip), vehicle: saline with Tween-80
[7] = dose: 12.5 mg/kg/injection, schedule: Q01DX009 (ip), vehicle: saline with Tween-80
[8] = dose: 25.0 mg/kg/injection, schedule: Q01DX009 (ip), vehicle: saline with Tween-80
[9] = dose: 50.0 mg/kg/injection, schedule: Q01DX009 (ip), vehicle: saline with Tween-80
[10] = dose: 50.0 mg/kg/injection, schedule: Q04DX003 (ip), vehicle: saline with Tween-80
[11] = dose: 100.0 mg/kg/injection, schedule: Q01DX009 (ip), vehicle: saline with Tween-80
[12] = dose: 100.0 mg/kg/injection, schedule: Q04DX003 (ip), vehicle: saline with Tween-80
[13] = dose: 200.0 mg/kg/injection, schedule: Q04DX003 (ip), vehicle: saline with Tween-80
[14] = dose: 12.5 mg/kg/injection, schedule: Q01DX009 (ip), vehicle: Klucel (hydroxypropylcellulose) (HPC)
[15] = dose: 25.0 mg/kg/injection, schedule: Q01DX009 (ip), vehicle: Klucel (hydroxypropylcellulose) (HPC)
[16] = dose: 50.0 mg/kg/injection, schedule: Q01DX009 (ip), vehicle: Klucel (hydroxypropylcellulose) (HPC)
[17] = dose: 400.0 mg/kg/injection, schedule: Q04DX003 (ip), vehicle: saline with Tween-80
[18] = dose: 200.0 mg/kg/injection, schedule: Q01DX009 (ip), vehicle: saline with Tween-80
[19] = dose: 50.0 mg/kg/injection, schedule: Q04DX002 (ip), vehicle: saline with Tween-80

CC(C)CCCC(C)C1CCC2C3CC=C4CC(O)CCC4(C)C3CCC12C (stereo unspecified) (tested in a mixture with another compound)
T/C (dose: 12.5 mg/kg/injection, schedule: Q01DX009 (ip), vehicle: water): 102 % of control | T/C (dose: 25.0 mg/kg/injection, schedule: Q01DX009 (ip), vehicle: water): 100 % of control | T/C (dose: 50.0 mg/kg/injection, schedule: Q01DX009 (ip), vehicle: water): 102 % of control

CCN(CC)CC(C)Nc1c2ccc(Cl)cc2nc2ccc(OC)cc12 (stereo unspecified)
T/C [1]: 94 % of control | T/C [2]: 91 % of control | T/C [3]: 97 % of control

NNC(=S)N/N=C/c1ccccn1
T/C (dose: 1.56 mg/kg/injection, schedule: Q01DX009 (ip), vehicle: saline): 93 % of control and 98 % of control | T/C (dose: 3.12 mg/kg/injection, schedule: Q01DX009 (ip), vehicle: saline): 98 % of control and 100 % of control | T/C [4]: 105 % of control | T/C (dose: 6.25 mg/kg/injection, schedule: Q01DX009 (ip), vehicle: saline): 115 % of control | T/C (dose: 6.25 mg/kg/injection, schedule: Q04DX003 (ip), vehicle: saline with Tween-80): 118 % of control | T/C (dose: 6.3 mg/kg/injection, schedule: Q01DX009 (oral), vehicle: saline): 92 % of control | T/C (dose: 12.5 mg/kg/injection, schedule: Q01DX009 (oral), vehicle: saline): 98 % of control | T/C [5]: 98 % of control | T/C [6]: 102 % of control

C=C1C(=O)OC2CCCCC3OC3C12 (stereo unspecified)
T/C (dose: 25.0 mg/kg/injection, schedule: Q01DX001 (ip), vehicle: saline): 108 % of control | T/C (dose: 50.0 mg/kg/injection, schedule: Q01DX001 (ip), vehicle: saline): 96 % of control | T/C (dose: 100.0 mg/kg/injection, schedule: Q01DX001 (ip), vehicle: saline): 91 % of control

CCCCC(=O)NN
T/C [7]: 90 % of control | T/C [8]: 104 % of control | T/C [9]: 118 % of control

CC(=O)SCCC(=O)O
T/C (dose: 25.0 mg/kg/injection, schedule: Q04DX003 (ip), vehicle: saline): 96 % of control | T/C (dose: 50.0 mg/kg/injection, schedule: Q04DX003 (ip), vehicle: saline): 104 % of control

O=c1[nH]c(-c2ccccc2)c(N=Nc2ccccc2)c(=O)[nH]1
T/C (dose: 100.0 mg/kg/injection, schedule: Q01DX001 (ip), vehicle: saline with Tween-80): 89 % of control | T/C (dose: 200.0 mg/kg/injection, schedule: Q01DX001 (ip), vehicle: saline with Tween-80): 96 % of control | T/C (dose: 400.0 mg/kg/injection, schedule: Q01DX001 (ip), vehicle: saline with Tween-80): 102 % of control

COC(=O)N1c2ccccc2C=CC1C#N (stereo unspecified)
T/C [4]: 89 % of control | T/C [7]: 103 % of control | T/C [5]: 97 % of control | T/C [8]: 95 % of control | T/C [6]: 97 % of control | T/C [9]: 98 % of control | T/C [10]: 97 % of control | T/C [11]: 101 % of control | T/C [12]: 98 % of control | T/C [13]: 95 % of control

OCC1OC(n2ncc3cncnc32)C(O)C1O (stereo unspecified)
T/C (dose: 25.0 mg/kg/injection, schedule: Q01DX009 (ip), vehicle: other): 94 % of control | T/C (dose: 50.0 mg/kg/injection, schedule: Q01DX009 (ip), vehicle: other): 97 % of control | T/C (dose: 100.0 mg/kg/injection, schedule: Q01DX009 (ip), vehicle: other): 90 % of control | T/C (dose: 200.0 mg/kg/injection, schedule: Q01DX009 (ip), vehicle: other): 97 % of control

O=C(OCC1OC(n2cnc3c(=S)nc[nH]c32)C(OC(=O)c2ccc([N+](=O)[O-])cc2)C1OC(=O)c1ccc([N+](=O)[O-])cc1)c1ccc([N+](=O)[O-])cc1 (stereo unspecified)
T/C (dose: 132.0 mg/kg/injection, schedule: Q01DX009 (ip), vehicle: saline with Tween-80): 157 % of control

O=C(NNc1ccccc1)c1ccccc1
T/C [14]: 110 % of control | T/C [15]: 105 % of control | T/C [16]: 106 % of control | T/C (dose: 75.0 mg/kg/injection, schedule: Q01DX009 (ip), vehicle: saline): 96 % of control | T/C [1]: 110 % of control | T/C (dose: 150.0 mg/kg/injection, schedule: Q01DX009 (ip), vehicle: saline): 97 % of control | T/C [2]: 100 % of control | T/C (dose: 300.0 mg/kg/injection, schedule: Q01DX009 (ip), vehicle: saline): 98 % of control | T/C [3]: 110 % of control

S=C(S)NC1CCCCCCCCCCC1
T/C [12]: 102 % of control | T/C [13]: 100 % of control | T/C [17]: 93 % of control

NC(CO)(CO)CO
T/C (dose: 100.0 mg/kg/injection, schedule: Q01DX009 (ip), vehicle: saline): 98 % of control | T/C (dose: 200.0 mg/kg/injection, schedule: Q01DX009 (ip), vehicle: saline): 93 % of control | T/C (dose: 400.0 mg/kg/injection, schedule: Q01DX009 (ip), vehicle: saline): 100 % of control

CCCN(CCC)CC(=O)c1ccc2cc(Br)c3ccccc3c2c1
T/C (dose: 100.0 mg/kg/injection, schedule: Q04DX003 (ip), vehicle: saline): 92 % of control | T/C (dose: 200.0 mg/kg/injection, schedule: Q04DX003 (ip), vehicle: saline): 91 % of control | T/C (dose: 400.0 mg/kg/injection, schedule: Q04DX003 (ip), vehicle: saline): 89 % of control

C1=CCOCOC1
T/C [7]: 106 % of control | T/C [8]: 96 % of control | T/C [9]: 114 % of control and 102 % of control | T/C [11]: 100 % of control and 103 % of control | T/C [12]: 100 % of control | T/C [18]: 106 % of control | T/C [13]: 118 % of control

[Cl][Pt+2][Cl].[NH-]CCc1ccccc1.[NH-]CCc1ccccc1
T/C [5]: 103 % of control | T/C [6]: 106 % of control | T/C [10]: 106 % of control | T/C [12]: 103 % of control | T/C [13]: 117 % of control

CC(=O)Nc1nnc(SCc2ccccc2)s1
T/C [11]: 100 % of control | T/C [12]: 92 % of control | T/C [18]: 96 % of control | T/C [13]: 89 % of control | T/C (dose: 400.0 mg/kg/injection, schedule: Q01DX009 (ip), vehicle: saline with Tween-80): 100 % of control | T/C [17]: 89 % of control

Oc1ccccc1-c1nnc(-c2ccccc2)o1
T/C [19]: 91 % of control | T/C [1]: 87 % of control | T/C [2]: 95 % of control | T/C [3]: 87 % of control

O=c1c2ccccc2nc2c3ccccc3nnn12
T/C [19]: 98 % of control | T/C [1]: 120 % of control | T/C [2]: 91 % of control

O=C(O)c1ccc([As](=O)(O)O)cc1
T/C (dose: 6.25 mg/kg/injection, schedule: Q01DX009 (ip), vehicle: Klucel (hydroxypropylcellulose) (HPC)): 102 % of control | T/C [14]: 98 % of control | T/C [15]: 87 % of control and 92 % of control

NC(=O)c1cn(C2OC(CO)CC2O)c2ncnc(N)c12 (stereo unspecified)
T/C (dose: 0.13 mg/kg/injection, schedule: Q01DX009 (ip), vehicle: water): 90 % of control | T/C (dose: 0.25 mg/kg/injection, schedule: Q01DX009 (ip), vehicle: water): 98 % of control | T/C (dose: 0.5 mg/kg/injection, schedule: Q01DX009 (ip), vehicle: water): 96 % of control | T/C (dose: 1.0 mg/kg/injection, schedule: Q01DX009 (ip), vehicle: water): 102 % of control | T/C (dose: 2.0 mg/kg/injection, schedule: Q01DX009 (ip), vehicle: water): 113 % of control | T/C (dose: 8.0 mg/kg/injection, schedule: Q01DX009 (ip), vehicle: water): 110 % of control | T/C (dose: 32.0 mg/kg/injection, schedule: Q01DX009 (ip), vehicle: water): 122 % of control

CCOC1(CC)CN(Cc2ccccc2)CCO1 (stereo unspecified)
T/C [12]: 100 % of control | T/C [13]: 100 % of control | T/C [17]: 97 % of control

CCOC(=O)Nc1cc(F)c(F)cc1F
T/C [11]: 98 % of control | T/C [18]: 98 % of control

CS(=O)(=O)OCCN(CCOS(C)(=O)=O)c1ccc(C=Nc2ccc(-c3csc(COc4ccccc4)n3)cc2)cc1
T/C [14]: 119 % of control | T/C [15]: 110 % of control | T/C [16]: 112 % of control | T/C (dose: 100.0 mg/kg/injection, schedule: Q01DX009 (ip), vehicle: Klucel (hydroxypropylcellulose) (HPC)): 115 % of control | T/C (dose: 200.0 mg/kg/injection, schedule: Q01DX009 (ip), vehicle: Klucel (hydroxypropylcellulose) (HPC)): 120 % of control | T/C (dose: 400.0 mg/kg/injection, schedule: Q01DX008 (ip), vehicle: Klucel (hydroxypropylcellulose) (HPC)): 150 % of control | T/C (dose: 400.0 mg/kg/injection, schedule: Q01DX009 (ip), vehicle: Klucel (hydroxypropylcellulose) (HPC)): 106 % of control and 107 % of control

From PubChem BioAssay AID256 (DTP/NCI, 2004)
